From paper PMC8599359 (Molecular Neurobiology, 2021)
Entries after “also recorded” stand apart in the source; their conditions may differ.

Columns and labels:
[1] = target: T1, MMP-12 (Homo sapiens, UniProt P39900); assay: Fluorometric substrate assay (MMP inhibitor profiling kit); assay type: biochemical; conditions: human recombinant MMP-12, 60 min preincubation, four-parameter fit
T1 construct: purchased Enzo life sciences BML-AK308
Description: Kit contained a panel of ten MMPs and a quenched fluorogenic substrate OMNIMMP® RED. Composition of a quenched fluorogenic substrate was TQ3-GABA-Pro-Cha-Abu-Smc-His-Ala-Dab(6’-TAMRA)-Ala-Lys-NH2 [TQ3 = quencher; GABA = 4-aminobutyric acid; Cha = L-cyclohexylalanine; Abu = 2-aminobutyric acid; Smc = S-methyl-L-cysteine; Dab = 2,4-diaminobutyric acid; 6’-TAMRA = 6’-tetramethylrhodamine]. Experiment was performed as per instructions provided in the manufacturer’s manual. The assays were performed in a 96-well, black, flat, microplate format. The compound NNGH was provided as a prototypic control inhibitor. […] Untreated MMPs were used as control. The experiment was performed in biological triplicates. After 60-min incubation, fluorogenic substrate OMNIMMP® RED was added to each reaction/well to start the reaction. The plate was continuously read at Ex/Em = 545/576 nm (cutoff at 570 nm) for 30 min with 1-min time intervals at constant temperature, 37 °C, using Molecular Devices SpectraMax M3 plate reader with SoftMax Pro 6.2 software.

[2] = target: T2, MMP-2 (Homo sapiens, UniProt P08253); assay: Gelatin zymography of medium of PMA-stimulated THP-1 cells; assay type: cell-based; conditions: 100 µM, 18 h, compared to controls
T2 sequence (P08253 110-660): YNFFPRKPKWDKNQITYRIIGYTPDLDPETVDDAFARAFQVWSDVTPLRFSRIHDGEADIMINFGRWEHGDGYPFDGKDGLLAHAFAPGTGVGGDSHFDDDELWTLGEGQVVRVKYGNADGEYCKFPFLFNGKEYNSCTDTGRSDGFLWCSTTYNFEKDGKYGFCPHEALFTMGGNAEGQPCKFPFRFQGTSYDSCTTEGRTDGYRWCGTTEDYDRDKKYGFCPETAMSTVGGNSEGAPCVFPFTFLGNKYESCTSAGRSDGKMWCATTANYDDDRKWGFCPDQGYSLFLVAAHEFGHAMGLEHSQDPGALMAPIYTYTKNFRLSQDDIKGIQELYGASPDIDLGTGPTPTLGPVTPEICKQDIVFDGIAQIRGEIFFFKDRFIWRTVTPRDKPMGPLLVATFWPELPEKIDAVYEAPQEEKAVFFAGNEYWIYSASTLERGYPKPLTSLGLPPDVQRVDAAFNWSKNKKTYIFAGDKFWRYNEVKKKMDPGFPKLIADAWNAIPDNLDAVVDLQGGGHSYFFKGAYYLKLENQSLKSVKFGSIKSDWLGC
Description: (§1) THP-1 cells were plated in 12-well plates at a density of 1 × 10^6 cells per well. First, THP-1 were treated with phorbol-12-myristate-13-acetate (PMA) for 24 h to promote the differentiation of cells into macrophages and stimulate MMP secretion. […] For each treatment, biological triplicate samples were utilized. Following treatment, cell medium was collected from each well and centrifuged at 800 × g for 10 min at 4 °C to remove any cell debris. Collected samples were stored at − 80 °C for further analysis. A 10% SDS–polyacrylamide gel containing 0.1% gelatin was loaded with 3 µg of protein from cell medium for gelatin zymography. In parallel, second 10% SDS–polyacrylamide gel was used to assess equal protein loading. In addition, recombinant human MMP-2 and MMP-9 (10 ng each) were loaded as standards (EMD Millipore, Burlington, MA). Gel ran at 60 V until the loading dye reached the bottom of the gel. After the run, the gelatin gel was washed with water for 15 min and incubated in renaturation buffer [2.5% (v/v) Triton X-100 in Milli-Q water] for 60 min at room temperature. The renaturation buffer was replaced with a fresh renaturation buffer at the interval of 30 min. […] Relative activity of MMPs was measured by quantitating band density by ImageJ software and normalized with respective standard.

[3] = tested on: THP-1 cells; assay: MTT cytotoxicity assay; assay type: cell-based; conditions: THP-1 cells, 1, 10 or 100 µM, 18 h
Description: THP-1 cells were plated in 96-well plates at a density of 0.08 × 10^6 cells per well. […] Vehicle-treated cells were used as controls. For each treatment, twelve samples were utilized. Cells were washed with PBS and incubated with 100 μL/well of MTT solution (5 mg/mL) for 45 min at 37 °C. After incubation, MTT solution was removed, and DMSO (200 μL) was added to each well. Absorbance was measured at 490 nm on a Molecular Devices SpectraMax M3 plate reader with SoftMax […].2 software (Sunnyvale, CA). Absorbance was compared to that of control cells to determine cytotoxicity.

[4] = tested on: C3H/HeJ mice pups, brain; assay: Diffusion tensor imaging of pups; assay type: in vivo, mouse
Description: In vivo bioimaging (diffusion tensor imaging (DTI) and magnetic resonance spectroscopy (^1H MRS)) was performed using a 7 Tesla/16 cm Bruker PharmaScan or a 7 Tesla 21 cm Bruker Biospec (Karlsure, Germany) MRI/MRS system. At PND 28–34, DTI was performed on live mice pups to determine microstructural changes. Animals from both DTG- and vehicle-treated (control) groups were scanned. Pups (male and female) were randomly selected from each dam. As described in our previous work, a 4-segment echo planar imaging (EPI) readout with a balanced, rotationally invariant and alternating polarity icosahedral scheme (12 directions) and b value = 800 s/mm^2 were utilized. Diffusion Toolkit (http://trackvis.org/dtk/) was used to calculate DTI metrics, fractional anisotropy (FA). Region of interest (ROI) analysis was performed to measure DTI metrics on hippocampus (HI), cortex (CT), striatum (ST), thalamus (TH), hypothalamus (HY), and cerebellum (CE).

[5] = tested on: infants born to women receiving DTG at conception; conditions: cited from earlier work
[6] = target: MMP-9 (Homo sapiens, UniProt P14780); assay: Gelatin zymography of medium of PMA-stimulated THP-1 cells; assay type: cell-based; design: endogenous in cells; host or cells: PMA-stimulated THP-1 cells, culture medium; conditions: 100 µM, 18 h, compared to controls
Chain of MMP-9 (P14780 94-707): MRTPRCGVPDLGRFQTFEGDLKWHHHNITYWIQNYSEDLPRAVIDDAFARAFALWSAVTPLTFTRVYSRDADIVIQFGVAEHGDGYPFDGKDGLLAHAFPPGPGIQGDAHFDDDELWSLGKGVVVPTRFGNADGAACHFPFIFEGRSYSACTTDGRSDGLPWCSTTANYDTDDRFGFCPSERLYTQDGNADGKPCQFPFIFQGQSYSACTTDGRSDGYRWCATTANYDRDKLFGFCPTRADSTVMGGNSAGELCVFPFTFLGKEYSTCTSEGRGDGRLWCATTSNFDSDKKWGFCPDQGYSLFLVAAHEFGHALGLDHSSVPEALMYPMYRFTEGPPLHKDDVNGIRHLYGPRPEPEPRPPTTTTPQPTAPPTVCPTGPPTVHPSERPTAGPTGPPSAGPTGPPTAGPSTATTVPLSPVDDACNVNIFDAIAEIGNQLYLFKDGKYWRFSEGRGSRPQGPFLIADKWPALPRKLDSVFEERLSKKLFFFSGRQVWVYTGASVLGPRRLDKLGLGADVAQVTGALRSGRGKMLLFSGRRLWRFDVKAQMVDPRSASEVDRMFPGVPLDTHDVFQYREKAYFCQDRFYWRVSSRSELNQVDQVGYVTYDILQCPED
Description: as §1

T1 sequence (P39900 106-470): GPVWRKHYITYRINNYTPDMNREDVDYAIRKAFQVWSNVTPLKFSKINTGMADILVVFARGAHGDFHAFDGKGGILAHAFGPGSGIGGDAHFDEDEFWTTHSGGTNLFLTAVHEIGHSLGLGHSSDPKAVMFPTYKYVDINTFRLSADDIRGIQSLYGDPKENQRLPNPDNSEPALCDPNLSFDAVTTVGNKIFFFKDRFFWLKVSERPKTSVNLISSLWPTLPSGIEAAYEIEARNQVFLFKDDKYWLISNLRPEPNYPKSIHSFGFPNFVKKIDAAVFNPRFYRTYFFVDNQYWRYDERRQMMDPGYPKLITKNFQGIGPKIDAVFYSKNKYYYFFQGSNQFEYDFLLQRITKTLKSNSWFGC

## C[C@@H]1CCO[C@H]2Cn3cc(C(=O)NCc4ccc(F)cc4F)c(=O)c(O)c3C(=O)N12 [DTG, Dolutegravir]
[1]
  IC50: 131 µM
[2]
  Relative activity of pro and active forms of MMP-2: significantly decreased
[3]
  Cytotoxicity (cellular viability, MTT): Cytotoxicity was not observed at any concentration; also recorded: no DTG-induced cytotoxicity
[4]; PND 28-34, all six brain regions (HI, CT, ST, TH, HY, CE)
  fractional anisotropy (FA) values vs control: significantly lower
[4]; female pups, HI
  fractional anisotropy (FA) values vs control: trend of decrease
[4]; female pups, TH
  fractional anisotropy (FA) values vs control: significant reduction
[4]; male pups, HI, CT, ST and HY
  fractional anisotropy (FA) values vs control: significantly reduced
[4]; male pups, TH and CE
  fractional anisotropy (FA) values vs control: trend of reduced FA values
[5]
  overall clinical prevalence of NTDs among infants born to women receiving DTG at conception: ~ 0.3%
[5]; extended surveillance in Botswana
  risk of NTDs relative to other ARTs at conception: 2–3 times
[6]
  Relative activity of pro form of MMP-9: significantly decreased
